We go through 1 compound from patent publication US20120040008A1, “PHARMACEUTICAL COMPOSITIONS OF METABOTROPIC GLUTAMATE 5 RECEPTOR (MGLU5) ANTAGONISTS” (priority 2010, published 2012).

Each structure is given as a SMILES string. Values after ≈ are worked out from the molar mass of the structure shown.

Format in all cases: physicochemical
A short description of data set [1]: log D at pH 7.4.
Data set [2] can be described thus: aqueous solubility of the free base, pH-dependent. The note with it: aqueous medium.
Data set [3] in a line: BCS classification. The note with it: because of pH dependent solubility in physiological range.

One may read the logD as lipophilicity at a set pH, counting ionised and neutral species. Low readings indicate lower lipophilicity, high ones higher lipophilicity. In general, solubility refers to the dissolved amount per volume that the medium holds. Lower therefore signals a poorly soluble substance. Turning to `Cc1nc(C#Cc2ccnc(Cl)c2)c(C)n1-c1ccc(F)cc1` [2-Chloro-4-[1-(4-fluoro-phenyl)-2,5-dimethyl-1H-imidazol-4-ylethynyl]-pyridine], in data set [1], the logD is more than 3. Further, the solubility in data set [2] (aqueous buffer, alkaline conditions, pH 7) was 0.0003 mg/mL (≈ 0.000921 mM); in data set [2] (simulated gastric fluid, acidic conditions, pH 1), 3.2 mg/mL (≈ 9.82 mM). The BCS classification result in data set [3] is “BCS class 2”.
